Reference: US12186283B2, “Bismuth-thiol compositions and methods of use” (Microbion Corporation, priority 2018, dated 2025)
Several values for one entry are separate records, joined by “and”; a condition that tells them apart may be missing. Equal entries are not always repeated. Marks after values point to notes of the source that are not given here.

Tests used:
S. aureus ATCC 29213 = test: Broth microdilution MIC, QC organism (Example 13, Table 110); assay type: cell-based, Staphylococcus aureus
Text: MECs were only reported where observed.

Enterobacteriaceae = test: Broth microdilution MIC (Example 11), group statement; assay type: cell-based; settings: ATCC QC E. coli, ESBL-, KPC- and NDM-1-positive isolates
[1] = system: M. abscessus / MABSC biofilms; assay type: cell-based, Mycobacterium abscessus complex; settings: AMT0130-8, MABSC CF-isolate
[2] = Rat single-dose PK: lung tissue BisEDT; settings: for concentration at 24 h / concentration at 96 h: F344, rat, inhaled, 100 μg/kg
[3] = Rat tolerance of BisEDT (inhalation, IV, oral); settings: 100 μg/kg inhalation and IV and 250 μg/kg oral, single dose
[4] = Aerosol particle size distribution of nebulized suspensions (cascade impactor / APS)
[5] = system: MUCILAIR™ fully differentiated human airway epithelium; test: Acute toxicity on […] fully differentiated human airway epithelium (LDH, TEER, morphology); assay type: cell-based
Protocol: Controlled in vitro evaluation of BisEDT, with respect to potential cytotoxicity on fully differentiated human airway epithelium was carried out. Both solubilized and solid (powder/particulate) forms of BisEDT were evaluated for cytotoxicity by Epithelix, a contract research organization (CRO) specializing in this form of cytotoxicity evaluation utilizing a proprietary, in vitro fully differentiated human airway epithelium test system ([…]™). The […]™ system facilitated evaluation of cytotoxicity through both LDH release (from the culture medium side) and trans-epithelial electrical resistance (TEER) from the apical/air-exposed side as well as pre- and post-exposure microscopic examination for morphological changes (FIG. 13).
The assay system used in this study is Epithelix's proprietary technology sold under the trademark […]™ […]™ is a fully differentiated and ready-to-use 3D model of human airway epithelium, constituted with primary human epithelial cells freshly isolated from nasal, tracheal or bronchial biopsies. […]™ (FIG. 24), is not only morphologically and functionally differentiated, but can also be maintained in a homeostatic state for a long period of time (Huang et al., 2009).
[…]™ is composed of basal cells, ciliated cells and mucus cells. The proportion of these various cell types is preserved compared to what one observes in vivo (Huang et al., 2011). Moreover the epithelia are started from de-differentiated cells. The cells undergo a progressive differentiation with time. After 45 days of culture, the epithelia are fully ciliated, secret mucus and are electrically tight (TEER>200 (2 Ω·cm^2). The activity of the main epithelial ionic channels, such as CFTR, EnaC, Na/K ATPase, is preserved and the epithelia is shown to respond in a regulated and vectorial manner to the pro-inflammatory stimulus, TNF-α (Huang et al., 2011). A large panel of cytokines, chemokines and metalloproteinases has been detected in […]™ (e.g. IL-8, IL-6, GM-CSF, MMP-9, GRO-α).
BisEDT (MB-1-B3) was applied on the apical surface of […]™ during 1, 8, 24 and 48 hours (FIG. 13). The effect of 6 concentrations was studied: 0.001, 0.01, 0.1, 1, 10 and 30 uM. […] 30 μl solution at the selected concentration was applied on the apical surface of […]™. The negative control corresponds to the vehicle solution (0 μM) and untreated cultures. The positive control corresponds to 50 μl to 10% Triton X-100 diluted in a buffered saline solution. The study was run in triplicates.
During the study, inserts were maintained in a CO2 incubator (37° C., 5% CO2, 100% humidity). The following end-points were determined: • Tissue integrity monitoring: Trans-Epithelial Electrical Resistance (TEER) measurement (quantitative) at D0, D1 and D2. • Cytotoxicity monitoring: LDH test (quantitative) at D0, D1 and D2. • Morphology: cellular and tissue integrity examined under contrast microscope at DO, D1 and D2.
(§1) Compound BisEDT was applied on the apical surface of […]™. The effect of 5 concentrations after 1, 8, 24 and 48 hours exposure was studied: 0.033, 0.33, 3.33, 33.3, 333 μg/cm^2. The compound was diluted in Dextran powder at the targeted concentration and compressed in order to obtain a tablet. The study was run in triplicates. During the study, inserts were maintained in a CO2 incubator (37° C., 5% CO2, 100% humidity).
as §1, with “of 1 μg/cm^2” for “of 5”, “was studied.” for “was studied: 0.033, 0.33, 3.33, 33.3, 333 μg/cm^2.”

[6] = BisEDT as solid, 1 μg/cm^2, 1 hour exposure
[7] = BisEDT as solid, 0.033 and 0.33 μg/cm^2, all tested time points
[8] = BisEDT in solution 0.001-30 μM apical, 1, 8, 24 and 48 hours

CC(S)C(C)S.[Bi] (stereo not drawn) [BisBDT, bismuth-2,3-butanedithiol]
MIC 24 hr (S. aureus ATCC 29213): 1^a
MIC values (range across isolates) (Enterobacteriaceae): 0.5 to 2 µg/mL
reduction in biofilm cell viability [1]: only very modest reductions in biofilm cell viability

C1C[S][Bi]([S]CC[S][Bi]2[S]CC[S]2)[S]1 [BisEDT, bismuth-1,2-ethanedithiol]
concentration at 24 h ([2]; lung fluid): 123 µg/mL
concentration at 96 h ([2]; lung fluid): 78 µg/mL
concentration at 24 h ([2]; lung tissue): 4090 ng/g
concentration at 96 h ([2]; lung tissue): 2600 ng/g
half-life of lung levels ([2]; rat, IV dosing): about 24 hour
lung levels relative to inhalation group ([2]; rat, IV dosing 100 μg/kg): < 5%
lung levels ([2]; rat, oral dosing 250 μg/kg): no lung levels
lung tissue half-life ([2]; rat, single inhalation dose (100 μg/kg lung deposited)): about 4 days
Mean BisEDT Conc, lung at sacrifice ([2]; rat, single inhaled dose 47 μg/kg, sac time 30 hr): 4.8 ng/g
Mean BisEDT Conc, lung at sacrifice ([2]; rat, single inhaled dose 124 μg/kg, sac time 30 hr): 5.9 ng/g
Mean BisEDT Conc, lung at sacrifice ([2]; rat, single inhaled dose 400 μg/kg, sac time 30 hr): 12.1 ng/g
Mean BisEDT Conc, lung at sacrifice ([2]; rat, single inhaled dose 3000 μg/kg, sac time 24 hr): 82.3 ng/g
tolerability [3]: tolerated
Particle Size (GSD) ([4]; BisEDT Lot # ED268-1-11-01, formulation 25 mg/mL, APS): 2.98 (1.8) μm
Particle Size (GSD) ([4]; BisEDT Lot # ED268-1-11-01, formulation 50 mg/mL, APS): 2.83 (1.9) μm
Particle Size (GSD) ([4]; BisEDT Lot # ED268-1-11-01, formulation 75 mg/mL, APS): 3.16 (1.70) μm
Particle Size (GSD) ([4]; BisEDT Lot # ED268-1-11-01, formulation 100 mg/mL, APS): 3.53 (1.71) μm
Particle Size (GSD) ([4]; BisEDT Lot # ED268-1-11-01, formulation 100* mg/mL (asterisk not explained), APS): 3.60 (1.71) μm
Particle Size (GSD) ([4]; BisEDT Lot # ED268-1-11-01 suspension, formulation 1 mg/mL, PARI LC PLUS nebulizer, APS): 1.65 (1.6) μm
Particle Size (GSD) ([4]; BisEDT Lot # XL-47-125, 300 mOsmol/kg vehicle, formulation 10 mg/mL): 1.61 (1.65) μm
Particle Size (GSD) ([4]; BisEDT Lot # XL-47-125, 300 mOsmol/kg vehicle, formulation 50 mg/mL): 2.79 (1.69) μm
Particle Size (GSD) ([4]; BisEDT Lot # XL-47-125, 300 mOsmol/kg vehicle, formulation 100 mg/mL (two tests)): 2.90 (1.67) μm and 2.60 (1.65) μm
MMAD ([4]; exposure aerosols of the rat efficacy study, In-Tox Mercer Impactor): 1.54 μm
morphology after exposure ([5]; BisEDT as solid in dextran tablet, 3.33 μg/cm^2, 24 and 48 h): Cells were rounded and opaque at the periphery of inserts
morphology after exposure ([5]; BisEDT as solid in dextran tablet, 0.033 and 0.33 μg/cm^2): No morphological modifications were observed
morphology after exposure ([5]; BisEDT as solid in dextran tablet, 33.3 and 333 μg/cm^2, 8, 24 and 48h): Cells were rounded and opaque on the inserts
tissue integrity (TEER) ([5]; BisEDT as solid, 1 μg/cm^2, 8, 24 and 48H exposure): Loss of tissue integrity is observed
cytotoxicity (LDH release) ([5]; BisEDT as solid, 1 μg/cm^2, 8, 24 and 48h): time- and dose-dependent cytotoxicity is observed
morphology after exposure ([5]; BisEDT as solid, 1 μg/cm^2, 1 hour and 8 hour exposure): no important morphological changes were observed
cytotoxicity (LDH release) [5, 6]: No significant effect on LDH release
tissue integrity (TEER) [5, 6]: no significant effect on TEER was observed
morphology after exposure ([5]; BisEDT as solid, 1 μg/cm^2, 24h exposure): the epithelial cells on 2 inserts out of 3 were dead
morphology after exposure ([5]; BisEDT as solid, 1 μg/cm^2, 48 h exposure): the epithelial cells on all 3 inserts were dead
cytotoxicity (LDH release) [5, 7]: No significant effect on LDH release
tissue integrity (TEER) [5, 7]: No significant effect was observed on TEER
cytotoxicity (LDH increase, TEER reduction) ([5]; BisEDT as solid, 1 and 3.33 μg/cm^2, 24 h and 48h exposure): induces cytotoxicity
cytotoxicity (LDH release) ([5]; BisEDT as solid, 3.3, 33.3 and 333 μg/cm^2): time and dose dependent, cytotoxicity is observed
tissue integrity (TEER) ([5]; BisEDT as solid, 3.33, 33.3 and 333 μg/cm^2, 8, 24 and 48H exposure): Loss of tissue integrity is observed
toxicity (LDH, TEER, morphology) ([5]; BisEDT as solid, 33.3, 333 μg/cm^2): strong toxicity was observed
tissue integrity (TEER) ([5]; BisEDT as solid, all tested doses (0.033-333 μg/cm^2), 1 hour exposure): no significant effect on TEER is observed
local toxicity on the airway epithelium (morphology, TEER, LDH) ([5]; BisEDT in liquid solution 0.001-30 μM, 1, 8, 24 and 48 hours): showed no local toxicity
morphology after exposure [5, 8]: No morphology changes were observed
percentage of cytotoxicity (LDH release) [5, 8]: LDH release was not altered
tissue integrity (TEER) [5, 8]: didn't show significant effect on TEER
highest tested concentration, no toxic effects observed ([5]; solubilized BisEDT, all time points up to 48 hours (=20.83 μg/mL)): 30 µM
